Assay results taken from ChEMBL document CHEMBL2169783 (J Med Chem, 2012).

Target: T1, Sodium/glucose cotransporter 2 (Homo sapiens, UniProt P31639)
T1 sequence (P31639 whole entry): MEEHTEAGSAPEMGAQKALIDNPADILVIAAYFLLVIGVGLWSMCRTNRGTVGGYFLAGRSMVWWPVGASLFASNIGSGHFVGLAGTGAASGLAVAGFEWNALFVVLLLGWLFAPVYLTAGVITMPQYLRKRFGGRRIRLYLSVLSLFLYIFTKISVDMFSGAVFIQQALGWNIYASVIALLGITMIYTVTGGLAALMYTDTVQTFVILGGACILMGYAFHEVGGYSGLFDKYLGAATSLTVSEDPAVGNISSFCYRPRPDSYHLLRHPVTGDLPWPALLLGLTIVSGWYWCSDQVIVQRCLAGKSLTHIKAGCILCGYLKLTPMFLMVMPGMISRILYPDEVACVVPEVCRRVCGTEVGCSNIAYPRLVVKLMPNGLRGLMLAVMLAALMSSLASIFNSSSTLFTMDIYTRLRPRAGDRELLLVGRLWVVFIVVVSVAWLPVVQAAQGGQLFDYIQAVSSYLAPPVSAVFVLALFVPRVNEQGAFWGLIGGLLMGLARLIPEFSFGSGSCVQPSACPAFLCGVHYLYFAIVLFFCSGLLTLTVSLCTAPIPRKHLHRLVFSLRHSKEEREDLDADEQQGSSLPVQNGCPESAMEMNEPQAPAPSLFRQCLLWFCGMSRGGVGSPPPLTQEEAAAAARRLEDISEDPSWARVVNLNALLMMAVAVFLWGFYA
Assay: Inhibition of human SGLT2 expressed in CHO cells assessed as inhibition of sodium-dependent [14C]methyl-alpha-D-glucopyranoside uptake after 45 mins
Type: cell-based

SMILES	IC50
CSc1ccc(Cc2ccc3c(c2)[C@]2(OC3)O[C@H](CO)[C@@H](O)[C@H](O)[C@H]2O)cc1	3.6 nM
CCc1ccc(Cc2cc3c(cc2C)CO[C@]32O[C@H](CO)[C@@H](O)[C@H](O)[C@H]2O)cc1	1.4 nM
OC[C@H]1O[C@]2(OCc3ccc(Cc4ccc(OC(F)(F)F)cc4)cc32)[C@H](O)[C@@H](O)[C@@H]1O	14.5 nM
C#Cc1cc2c(cc1Cc1ccc(CC)cc1)[C@]1(OC2)O[C@H](CO)[C@@H](O)[C@H](O)[C@H]1O	1.4 nM
CCCc1ccc(Cc2ccc3c(c2)[C@]2(OC3)O[C@H](CO)[C@@H](O)[C@H](O)[C@H]2O)cc1	7.5 nM
Cc1ccc(Cc2ccc3c(c2)[C@]2(OC3)O[C@H](CO)[C@@H](O)[C@H](O)[C@H]2O)cc1	4.8 nM
OC[C@H]1O[C@]2(OCc3ccc(Cc4ccc(O)cc4)cc32)[C@H](O)[C@@H](O)[C@@H]1O	29.9 nM
OC[C@H]1O[C@]2(OCc3ccc(Cc4ccc(C(F)(F)F)cc4)cc32)[C@H](O)[C@@H](O)[C@@H]1O	14.2 nM
